The text below walks through data of patent US20210002231A1 (Centre National de la Recherche Scientifique, priority 2018, published 2021).

Read-outs that look alike come from different tables or passages of the source. Residues, ends and D or L forms follow the SMILES beside them.

The subject of data set [1] is C57BL/6N mice. The data set is described as follows: Respiratory depression by whole body plethysmography. To be noted: acute sc.; KGOP01 1.8, KGFF03 1.2, KGFF09 7.4 μmol/kg; 100 min. It is filed as in vivo. As to the method:
Ventilatory parameters were recorded in conscious C57BL/6N mice by whole body barometric plethysmography (Emka Technologies, Paris, France). Mice were acclimatized with the plethysmograph chamber for 30 min until a stable baseline was obtained. Then, the animal was gently removed from the chamber for sc. injection of the tested drug at TO and replaced in the chamber for the remaining measurements. Respiratory frequency (f) was recorded for 100 min and used as the index of respiratory depression.

Data set [2] has as its target T1, GPR10 (Homo sapiens, UniProt P49683).
T1 construct: expressed in transfected cells; host or cells: CHO cells (gift from M. Parmentier, IRIBHM, Brussels), membranes
T1 sequence (P49683 1-370): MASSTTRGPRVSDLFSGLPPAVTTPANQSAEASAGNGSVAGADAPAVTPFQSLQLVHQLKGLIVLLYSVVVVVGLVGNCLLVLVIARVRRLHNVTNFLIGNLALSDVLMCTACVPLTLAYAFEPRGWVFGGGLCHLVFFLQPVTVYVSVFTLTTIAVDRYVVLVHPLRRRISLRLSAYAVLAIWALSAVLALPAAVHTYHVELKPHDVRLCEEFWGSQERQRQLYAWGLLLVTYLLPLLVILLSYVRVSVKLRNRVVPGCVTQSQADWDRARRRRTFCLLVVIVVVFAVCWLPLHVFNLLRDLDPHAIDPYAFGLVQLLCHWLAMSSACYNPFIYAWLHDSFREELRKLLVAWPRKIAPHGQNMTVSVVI
The data set is described as follows: Radioligand competition binding with [3H]-PrRP-20.

The target of data set [3] is T2, human DOPr (Homo sapiens, UniProt P41143).
T2 construct: expressed in transfected cells; HEK293-Glo20F cells (cAMP)
T2 sequence (P41143 whole entry): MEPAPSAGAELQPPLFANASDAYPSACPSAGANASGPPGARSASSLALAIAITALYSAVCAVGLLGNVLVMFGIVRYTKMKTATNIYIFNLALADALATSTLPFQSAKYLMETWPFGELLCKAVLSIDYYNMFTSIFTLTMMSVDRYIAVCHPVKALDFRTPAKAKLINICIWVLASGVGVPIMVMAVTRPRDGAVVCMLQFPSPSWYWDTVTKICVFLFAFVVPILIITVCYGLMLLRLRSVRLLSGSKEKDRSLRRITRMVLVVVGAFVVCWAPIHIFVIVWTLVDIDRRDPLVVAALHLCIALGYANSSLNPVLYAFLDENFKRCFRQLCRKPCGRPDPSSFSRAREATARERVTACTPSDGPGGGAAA
The data set is described as follows: biochemical. It is filed as binding.

Data set [4] has as its target T3, human KOPr (Homo sapiens, UniProt P41145).
T3 construct: expressed in transfected cells; HEK293-Glo20F cells (cAMP)
The data set is described as follows: Glo-sensor cAMP assay. It is filed as cell-based. As to the method: (§1) Stimulation by endogenous RF-amide peptides or test compounds for [^35S]-GTPγS binding to membranes from CHO cells expressing human NPFF1R or NPFF2R, were examined as reported. 1.6. Glo-Sensor cAMP Assay cAMP accumulation assay was essentially done as described with the following modifications: HEK293 cells stably expressing cAMP Glosensor-20F were used, with or without additional stable expression of each individual opioid receptor or NPFF1R. The cAMP responses were measured in presence of D-luciferin (1 mM).

The target of data set [5] is T2, human DOPr. The data set is described as follows: Glo-sensor cAMP assay. Format: cell-based. As to the method:
as §1, with “mM). All peptides and test compounds were incubated in the presence of IBMX for 15 min before inducing cAMP production by forskolin. IBMX and forskolin concentrations were optimized for each receptor cell line: NPFF1R responses were recorded in presence of 0.1 mM IBMX and 0.4 μM forskolin, NPFF2R responses with 0.5 mM IBMX and 0.3 μM forskolin, MOPr responses with 0.5 mM IBMX and 0.125 μM forskolin, DOPr responses with 0.1 mM IBMX and 0.125 μM forskolin; KOPr and NOPr with 0.5 mM IBMX and 1.5 μM forskolin.” for “mM).”

Data set [6] concerns the target human NPFF1R (Homo sapiens, UniProt Q9GZQ6). As to the kind of experiment: [35S]-GTPγS binding assay. The conditions noted are these: for Emax: relative to RFRP3. Set-up: expressed in transfected cells. It is filed as biochemical. As to the method: as §1
Data set [7] addresses NPFF2R (Homo sapiens, UniProt Q9Y5X5). As to the kind of experiment: [35S]-GTPγS binding assay. It is filed as biochemical. Details: expressed in transfected cells. As to the method: as §1
Data set [8] deals with T4, GPR54 (Homo sapiens, UniProt Q969F8).
T4 construct: expressed in transfected cells; host or cells: CHO cells, membranes
T4 sequence (Q969F8 whole entry): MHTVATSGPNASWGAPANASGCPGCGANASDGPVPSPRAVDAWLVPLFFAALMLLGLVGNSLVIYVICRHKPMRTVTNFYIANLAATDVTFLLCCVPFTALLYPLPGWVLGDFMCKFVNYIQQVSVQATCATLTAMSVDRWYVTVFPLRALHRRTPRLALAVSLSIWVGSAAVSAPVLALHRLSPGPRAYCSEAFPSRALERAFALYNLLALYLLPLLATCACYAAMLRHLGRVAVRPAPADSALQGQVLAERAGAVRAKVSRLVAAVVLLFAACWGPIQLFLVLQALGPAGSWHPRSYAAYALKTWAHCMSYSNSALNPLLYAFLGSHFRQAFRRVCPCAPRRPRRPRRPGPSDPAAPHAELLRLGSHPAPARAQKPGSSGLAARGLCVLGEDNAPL
As to the kind of experiment: Radioligand competition binding with [125I]-Kp-10.

Data set [9] deals with C57BL/6N mice. As to the kind of experiment: Hyperalgesia and analgesic tolerance upon chronic sc. treatment, tail immersion test. The conditions noted are these: for antinociceptive effect on day 1: equianalgesic sc. doses, 25 s cut-off; for basal thermal nociceptive threshold (development of hyperalgesia): chronic daily sc., compared with saline. It is filed as in vivo. As to the method:
Animal experiments were performed on adult male C57BL/6N male mice (25-30 g weight; Janvier labs, France). Animals were housed in groups of three to five per cage and kept under a 12 h/12 h light/dark cycle at 21±1° C. with ad libitum access to food and water. Experiments were performed during the light-on phase of the cycle. Mice were habituated to the testing room and equipment before starting behavioral experiments. Control and treated group assignment as well as pain response measurements were performed in a blinded manner. Every animal was used only once. 1.11. Drug administration All drugs were dissolved in physiological saline (0.9%) and administered subcutaneously (sc.) at 10 mL/kg (volume/body weight). […] Assessment of thermal nociception The nociceptive sensitivity to thermal stimulation was determined in mice using the warm-water tail immersion tests as previously described [12; 49]. In the tail immersion test, C57BN/6N mice were restrained in a grid pocket and their tail was immersed in a thermostated water bath. The latency (in sec) for tail withdrawal from hot water (47.5±0.5° C.) was taken as a measure of the nociceptive response. In the absence of any nociceptive reaction, a cut-off value of 25 sec was set to avoid tissue damage. Experiments for chronic drug effects were designed according to a protocol enabling the evaluation of time-course of opioid-induced hyperalgesia and development of analgesic tolerance using the tail immersion test. […] For analgesic tolerance evaluation, nociceptive latencies were measured on day 1 and 8 according to the acute effect protocol. For the assessment of hyperalgesia, basal nociceptive latencies were measured every day, 30 min before drug or saline injection. Responses are expressed as latency times (in sec) of tail withdrawal from the hot water.

The target of data set [10] is human MOPr (Homo sapiens, UniProt P35372). As to the kind of experiment: cell-based. Format: cell-based. Details: expressed in transfected cells; HEK293-Glo20F cells (cAMP). The conditions noted are these: for MOPr-induced G protein activation: in words; for Emax: read-out: MOPr (cAMP) Emax. Summed up: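 GTPγS binding used membranes of CHO cells expressing NPFF1R or NPFF2R, stimulated by RF-amide peptides or test compounds. cAMP was measured in HEK293 cells stably carrying Glosensor-20F, with or without stable expression of an opioid receptor or NPFF1R, in the presence of 1 mM D-luciferin.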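 As to MOPr (cAMP) Emax: Emax relative to DAMGO as 100%.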
Sequence of human MOPr (P35372 whole entry): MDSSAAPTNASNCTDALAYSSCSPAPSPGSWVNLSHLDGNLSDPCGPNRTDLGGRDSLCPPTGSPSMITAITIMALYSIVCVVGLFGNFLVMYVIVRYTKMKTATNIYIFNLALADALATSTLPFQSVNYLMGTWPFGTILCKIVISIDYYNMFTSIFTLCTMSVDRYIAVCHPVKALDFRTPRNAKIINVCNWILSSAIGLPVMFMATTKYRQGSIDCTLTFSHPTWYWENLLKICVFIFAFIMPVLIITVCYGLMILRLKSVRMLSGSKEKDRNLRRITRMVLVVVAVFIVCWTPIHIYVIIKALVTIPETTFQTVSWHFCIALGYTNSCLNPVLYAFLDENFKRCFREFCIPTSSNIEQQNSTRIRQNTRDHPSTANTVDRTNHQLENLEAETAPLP

Setting [11] is: Table 3a, HEK293-Glo20F-hMOPr cells, read-out: MOPr (cAMP) EC50.
[12] abbreviates: [3H]-PrRP-20, read-out: Ki ± SEM GPR10.
The mark [13] stands for this setting: [125I]-Kp-10, read-out: Ki ± SEM GPR54.

Sequence of NPFF2R (Q9Y5X5 whole entry): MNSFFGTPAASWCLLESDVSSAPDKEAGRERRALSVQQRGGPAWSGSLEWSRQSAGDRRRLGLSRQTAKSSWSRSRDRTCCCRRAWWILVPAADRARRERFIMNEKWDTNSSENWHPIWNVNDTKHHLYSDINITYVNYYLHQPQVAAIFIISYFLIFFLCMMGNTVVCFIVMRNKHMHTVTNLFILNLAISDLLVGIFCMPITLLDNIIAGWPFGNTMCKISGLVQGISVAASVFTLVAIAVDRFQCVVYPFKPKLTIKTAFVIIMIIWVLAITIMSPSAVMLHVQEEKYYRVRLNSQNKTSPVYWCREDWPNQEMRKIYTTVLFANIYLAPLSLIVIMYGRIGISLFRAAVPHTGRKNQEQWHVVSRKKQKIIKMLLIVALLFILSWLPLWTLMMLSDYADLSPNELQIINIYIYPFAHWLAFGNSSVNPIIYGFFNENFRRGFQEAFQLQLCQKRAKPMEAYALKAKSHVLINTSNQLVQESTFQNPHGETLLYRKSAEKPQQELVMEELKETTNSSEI
T3 sequence (P41145 whole entry): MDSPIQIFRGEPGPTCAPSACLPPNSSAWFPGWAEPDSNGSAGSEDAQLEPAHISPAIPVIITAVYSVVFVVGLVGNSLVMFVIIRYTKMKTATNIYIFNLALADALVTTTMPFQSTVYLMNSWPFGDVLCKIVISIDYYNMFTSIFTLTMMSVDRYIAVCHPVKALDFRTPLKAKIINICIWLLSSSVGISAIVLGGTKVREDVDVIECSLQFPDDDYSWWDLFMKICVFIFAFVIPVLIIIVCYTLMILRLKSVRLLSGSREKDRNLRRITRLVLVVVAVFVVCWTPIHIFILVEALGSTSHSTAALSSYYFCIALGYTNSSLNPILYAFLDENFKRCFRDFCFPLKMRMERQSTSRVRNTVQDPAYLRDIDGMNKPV
Sequence of human NPFF1R (Q9GZQ6 whole entry): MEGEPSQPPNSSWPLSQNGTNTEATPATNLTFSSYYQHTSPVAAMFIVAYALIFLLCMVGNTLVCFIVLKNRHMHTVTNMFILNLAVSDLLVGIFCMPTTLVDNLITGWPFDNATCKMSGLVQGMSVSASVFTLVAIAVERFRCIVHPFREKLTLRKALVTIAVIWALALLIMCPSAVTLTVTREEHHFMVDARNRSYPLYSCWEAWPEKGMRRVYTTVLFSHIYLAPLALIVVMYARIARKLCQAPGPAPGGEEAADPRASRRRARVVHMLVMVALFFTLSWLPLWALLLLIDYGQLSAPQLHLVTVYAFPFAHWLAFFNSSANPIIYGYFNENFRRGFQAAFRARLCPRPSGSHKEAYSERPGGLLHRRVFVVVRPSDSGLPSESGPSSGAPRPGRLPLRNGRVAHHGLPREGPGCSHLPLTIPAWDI

On to `Cc1cc(O)cc(C)c1C[C@H](N)C(=O)N[C@H](CCCNC(=N)N)C(=O)N[C@H]1Cc2ccccc2CN(CCC(=O)N[C@@H](CCCNC(=N)N)C(=O)N[C@@H](Cc2ccccc2)C(N)=O)C1=O` [KGFF03, H-Dmt-D-Arg-Aba-β-Ala-Arg-Phe-NH2] (HELM PEPTIDE1{[Cc1cc(O)cc(C)c1C[C@H](N)C(=O)[*:2]].[dR].[O=C1[C@@H](N[*:1])Cc2ccccc2CN1CCC(=O)[*:2]].R.F.[am]}$$$$V2.0), for which, in data set [1], the “respiratory depression (respiratory frequency) compared to saline” value (shortened to “respiratory depression … compared to saline”) is “did not”. Moreover, the Ki in [2] was > 10000 nM; in [3], 9.1 ± 0.7 nM; in data set [8] it was 4370 nM. For the same compound, the EC50 in data set [4] worked out at 95 nM; in data set [5] it was 0.34 nM; in data set [10] (setting [11]), 12 ± 2 nM. For the same compound, the Emax came to 34 ± 11% in data set [4]; 89 ± 6% in [5]; 88 ± 7% in [6]; 111 ± 17% in [7]; 92 ± 1% in [10]. For the same compound, in [9], the “antinociceptive effect on day 1” value was “full antinociception”. The “MOPr-induced G protein activation” value in data set [10] is “highly potent and fully efficacious”.
For `Cc1cc(O)cc(C)c1C[C@H](N)C(=O)N[C@H](CCCNC(=N)N)C(=O)N[C@H]1Cc2ccccc2CN(CCC(=O)N[C@@H](CCCN2CCC(Cc3ccccc3)CC2)C(=O)N[C@@H](Cc2ccccc2)C(N)=O)C1=O` [KGFF09, H-Dmt-D-Arg-Aba-β-Ala-Bpa-Phe-NH2], the “respiratory depression … compared to saline” value in data set [1] is “did not”. The inhibition constant (Ki) is > 10000 nM in data set [2] (setting [12]), 186 ± 77 nM in data set [3] and 2000 nM in [8] (setting [13]). Moreover, the Emax is 15 ± 1% in data set [4]; 90 ± 3% in data set [5]; 10 ± 2% in [6]; 38 ± 14% in data set [7]; 85 ± 2% in data set [10]. Besides, the EC50 in [5] was 0.78 nM; in data set [10] (Table 3B, read-out: MOPr (cAMP) EC50) it was 18.2 ± 6.1 nM; in data set [10] (setting [11]) it was 18.2 ± 6.1 nM. Besides, the “basal thermal nociceptive threshold (development of hyperalgesia)” value in [9] is recorded as “absent”. Besides, in data set [9] (daily sc. d1-d8, KGOP01 1.8, KGFF03 1.2, KGFF09 7.4 μmol/kg/d), the “decrease in antinociception efficacy (AUC) on day 8 compared to day 1” value is recorded as “less than 25%”. Besides, in data set [9], the “antinociceptive effect on day 1” value is on record as “full antinociception”. Besides, the “MOPr-induced G protein activation” value in data set [10] is “highly potent and fully efficacious”.
For `Cc1cc(O)cc(C)c1C[C@H](N)C(=O)N[C@H](CCCNC(=N)N)C(=O)N[C@H]1Cc2ccccc2CN(CCC(N)=O)C1=O` [KGOP01, reference compound], the “respiratory depression … compared to saline” value in [1] is given as “significant respiratory depression”. For the same compound, the figures for the Ki in data set [2] (setting [12]), in data set [3] and in data set [8] (setting [13]) were > 10000 nM, 5.1 ± 0.5 nM and > 10000 nM, respectively. For the same compound, the Emax in data set [4] was 18 ± 1%; in data set [5], 91 ± 2%; in [10], 89 ± 2%. The EC50 in data set [4] (read-out: KOPr (cAMP) EC50) was > 10000 nM; in [5], 0.16 ± 0.01 nM; in data set [6] (membranes from CHO-hNPFF1R cells, read-out: NPFF1R (GTPγS) EC50) it was > 10000 nM; in data set [7] (membranes from CHO-hNPFF2R cells, read-out: NPFF2R (GTPγS) EC50), > 10000 nM; in data set [10] (MOPr (cAMP) EC50), 0.204 ± 0.05 nM. In data set [9], the “basal thermal nociceptive threshold (development of hyperalgesia)” value is “significant and progressive decrease”. Moreover, the “antinociceptive effect on day 1” value in data set [9] was “full antinociception”.
